# Experimental data taken from patent EP4556003A1, “ANTI-OBESITY AND ANTI-DIABETIC ACTIVITY OF BROMINATED DITERPENES FROM RED ALGAE OF THE GENUS LAURENCIA AND APPLICATIONS THEREOF” (priority 2023, dated 2025).
# Assays:
# 3T3-L1 adipocytes = experiment: Oil red o staining of intracellular lipid accumulation; assay type: cell-based, Mouse
# Description: Mouse 3T3-L1 preadipocytes were maintained in proliferation medium containing DMEM supplemented with 10% (v/v) heat inactivated NBCS and 1% (v/v) penicillin-streptomycin at 37 °C with 5% CO2, humidified atmosphere. Cells were seeded in T-75 flasks at a density of 25×10^4 cells/flask. Cultures never became completely confluent according to the manufacturer's instructions. They were passaged using trypsin-EDTA solution once they reached 70-80% confluency. For differentiation, 3T3-L1 cells were seeded and after 24 h (day 1), cell differentiation was induced by changing the medium to high glucose DMEM containing 10% (v/v) heat inactivated FBS, 1% penicillin-streptomycin, 10 µg/mL insulin, 0.25 µM Dexamethasone (GAP), 0.5 mM IBMX (=differentiation medium I). On day 3, the medium was changed to high glucose DMEM containing 10% FBS, 1% penicillin- streptomycin, and 10 µg/mL insulin (=differentiation medium II). Thereafter, medium was changed every other day switching between differentiation medium I and differentiation medium II until day 12 or 23, when adipocytes were harvested. Control group preadipocytes were seeded at a higher density and harvested after two days. Test compounds were administered either at the initiation of differentiation, or after 15 days of differentiation and with every medium change. To determine the effect on preadipocyte differentiation, cells were seeded and after 24 h they were treated with neorogioldiol. Neorogioldiol was maintained in the culture medium throughout cell differentiation period. To determine the effect of neorogioldiol on mature adipocytes, cells were seeded and induced to differentiate for 14 days, then on day 15 neorogioldiol was added to the differentiation medium for 24 h before cells were harvested. Each compound used was diluted in a 90% carbowax™ 400, 10% (v/v) absolute ethanol solution serving as a control solvent. The final concentration in culture was 0.09% (v/v) carbowax and 0.01% (v/v) ethanol. […]
# Oil red o staining was applied to measure lipid accumulation intracellularly. Briefly, after 12 or 23 days of differentiation, the cell culture medium was removed and the 3T3-L1 adipocytes were fixed in 3.7% formaldehyde for 60 min at room temperature. Next, a solution of 0.21% oil red o was filtered using a 0.45 µm filter followed by incubation of the fixed cells for 45 min at room temperature. Excess dye was removed and cells were washed twice with PBS. Fresh PBS was added and the lipid droplets within the differentiated 3T3-L1 cells were visualized and photographed by microscopy. For quantitative analysis, oil red o staining was eluted with 100% isopropanol and the absorbance was measured at 510 nm using the Infinite® 200 PRO microplate plate reader (Tecan, Zurich, Switzerland).
# [1] = reference [12]; cited from earlier work
substance,measurement,setting,value
neorogioldiol,lipid accumulation,"3T3-L1 adipocytes; differentiation in presence of serial concentrations 62.5, 31.25, 15.625, 7.81 and 3.9 µM, dose-dependent",reduced lipid accumulation
same,lipid accumulation,"3T3-L1 adipocytes; differentiation induced in the presence of compound, after 12 days, 1 at 62.5 µM, 2 at 25 µM",significantly reduced lipid accumulation
same,lipid accumulation,"3T3-L1 adipocytes; mature adipocytes: differentiated 15 days, then 62.5 µM for 8 more days",decreased lipid accumulation
same,anti-inflammatory activity,[1],potent anti-inflammatory activity
